Results on 1 molecule are retold here after patent US4621094A, “Anti-histaminic pyridyl compounds” (priority 1984, dated 1986).

The test concerns the target T1, H1 histamine receptor (Cavia porcellus, UniProt P31389).
T1 construct: The longitudinal muscle was isolated from the intact ileum of guinea pigs; from tissue; host or cells: ileum longitudinal muscle, guinea pig (Hartley, male 250-400 g)
Put plainly: Antihistaminic activity: antagonism of histamine concentration-response curves in isolated guinea pig ileum longitudinal muscle (Schild plot). Format: cell-based, guinea pigs. The note with it: negative log of molar antagonist concentration shifting the control histamine concentration-response curve 2X to the right; tissue incubated one hour with test compound; organ bath, 300 mg tension; read-out: pA2 (converted). The procedure: The longitudinal muscle was isolated from the intact ileum of guinea pigs (Hartley, male 250-400 g) and placed in an organ bath under 300 mg tension. After one hour of equilibration, cumulative concentration-response curves (Van Rossum, J. M., Arch. Int. Pharmacodyn. Ther. 143, 299-330, 1963) to histamine were obtained. Following washing, the tissues were incubated for one hour with the test compound and then a second histamine concentration-response curve was run. Shifts to the right of the agonist concentration-response curve produced by the antagonists were used to construct Schild plots (Arunlakshana, O. And Schild, H. O., Br. J. Pharmacol: 14, 48-58, 1959 ). Regression of Log (dr-1) on Log [B], where dr is an equiactive response in the presence and absence of antagonist and [B] is the molar concentration of antagonist, allowed an estimate of pA2, i.e. the negative log of the concentration of antagonist which shifts the control histamine concentration-response curve 2X to the right.

T1 sequence (P31389 whole entry): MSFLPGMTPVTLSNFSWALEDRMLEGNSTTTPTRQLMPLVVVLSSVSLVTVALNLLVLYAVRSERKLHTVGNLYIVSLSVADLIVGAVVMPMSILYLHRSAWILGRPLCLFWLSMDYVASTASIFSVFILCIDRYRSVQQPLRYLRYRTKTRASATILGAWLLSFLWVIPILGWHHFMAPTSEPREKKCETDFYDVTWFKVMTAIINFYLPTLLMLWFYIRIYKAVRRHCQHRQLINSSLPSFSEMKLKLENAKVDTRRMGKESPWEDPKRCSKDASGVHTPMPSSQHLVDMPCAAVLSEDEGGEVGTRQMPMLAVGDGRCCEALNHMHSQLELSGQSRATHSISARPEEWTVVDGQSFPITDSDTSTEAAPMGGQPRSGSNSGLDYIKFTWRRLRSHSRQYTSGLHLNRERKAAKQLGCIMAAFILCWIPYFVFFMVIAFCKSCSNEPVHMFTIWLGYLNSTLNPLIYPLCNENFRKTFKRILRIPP

As to `CN(C)CCC(c1ccc(Cl)cc1)c1cccc(/C=C/C(=O)O)n1` (stereo not shown) [(E)-6-(1-(4-chlorophenyl)-3-dimethylaminopropyl)-2-pyridyl acrylic acid], the Kb is 2 µM.
